Data from US10584120B1, “Benzimidazole compounds and use thereof for treating Alzheimer's Disease or Huntington's Disease” (National Health Research Institutes, priority 2018, dated 2020).

Tests used:
in vivo = conditions: APP/PS1, mouse, po
[1] = system: Aβ deposits in brain tissues of APP/PS1 mice; assay: In vivo activity in transgenic APP/PS1 mouse model; conditions: 4-month-old APP/PS1 mice, orally administered for 3.5 months

Work on `O=C1NCC(c2ccc(-c3csc(C(F)(F)F)c3)c(F)c2F)N1c1ccc2[nH]cnc2c1` (centres unmarked) [Compound 28, 1-(1H-benzimidazol-5-yl)-5-{2,3-difluoro-4-[5-(trifluoromethyl)thiophen-3-yl]phenyl}-imidazolidin-2-one] yielded a bioavailability (in vivo) of 25%.

In the case of `O=C1NC(=O)N(c2ccc3[nH]cnc3c2)C1c1ccc(-c2nc(C(F)(F)F)cs2)cc1` (centres unmarked) [Compound 37, 1-(1H-benzimidazol-5-yl)-5-{4-[4-(trifluoromethyl)-1,3-thiazol-2-yl]phenyl}imidazolidine-2,4-dione], the “Aβ deposits in brain tissues” value [1] is reported as “depletion of Aβ deposits in brain tissues”.
